Test results: ChEMBL document CHEMBL1134117, “Synthesis of substituted 5[H]phenanthridin-6-ones as potent poly(ADP-ribose)polymerase-1 (PARP1) inhibitors” (Bioorg Med Chem Lett, 2001)
pIC50: −log10 of the molar value.

Molecular target: Poly [ADP-ribose] polymerase 1 (Homo sapiens, UniProt P09874)
Experiment: Inhibitory concentration against purified recombinant human Poly (ADP-ribose) polymerase 1

Chain of Poly [ADP-ribose] polymerase 1 (P09874 whole entry): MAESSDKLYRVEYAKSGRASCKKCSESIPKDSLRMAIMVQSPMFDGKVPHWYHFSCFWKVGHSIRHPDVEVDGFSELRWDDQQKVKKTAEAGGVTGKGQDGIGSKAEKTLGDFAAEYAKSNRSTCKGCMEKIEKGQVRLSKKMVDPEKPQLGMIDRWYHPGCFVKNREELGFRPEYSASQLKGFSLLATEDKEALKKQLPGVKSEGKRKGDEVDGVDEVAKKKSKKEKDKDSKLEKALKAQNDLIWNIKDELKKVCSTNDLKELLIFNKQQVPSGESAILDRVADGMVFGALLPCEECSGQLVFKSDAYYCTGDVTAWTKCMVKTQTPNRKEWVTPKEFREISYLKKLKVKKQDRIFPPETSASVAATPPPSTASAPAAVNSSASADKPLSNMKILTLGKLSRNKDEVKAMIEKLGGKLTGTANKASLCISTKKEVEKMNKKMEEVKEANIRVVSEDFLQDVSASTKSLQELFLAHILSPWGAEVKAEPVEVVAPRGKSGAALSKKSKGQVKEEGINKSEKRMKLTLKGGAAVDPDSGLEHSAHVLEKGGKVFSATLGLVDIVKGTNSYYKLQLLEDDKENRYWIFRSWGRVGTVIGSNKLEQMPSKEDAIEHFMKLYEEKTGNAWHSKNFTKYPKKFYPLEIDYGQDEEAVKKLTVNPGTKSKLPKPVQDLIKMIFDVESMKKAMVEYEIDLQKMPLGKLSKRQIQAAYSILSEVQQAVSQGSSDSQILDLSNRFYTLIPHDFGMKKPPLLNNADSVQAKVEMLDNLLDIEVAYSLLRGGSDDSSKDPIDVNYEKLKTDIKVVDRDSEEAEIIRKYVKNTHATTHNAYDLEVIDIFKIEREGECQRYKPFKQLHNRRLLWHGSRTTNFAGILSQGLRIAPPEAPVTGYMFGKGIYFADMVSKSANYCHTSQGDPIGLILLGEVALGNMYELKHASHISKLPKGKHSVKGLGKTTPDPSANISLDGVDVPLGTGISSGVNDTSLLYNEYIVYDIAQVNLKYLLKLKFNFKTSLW

Compound	pIC50
Nc1ccc2[nH]c(=O)c3ccccc3c2c1	6.74
Cc1cccc2c(O)nc3cc(F)ccc3c12	7.04
O=C(O)c1cccc2c(O)nc3ccccc3c12	< 4.22
O=c1[nH]c2ccccc2c2ccccc12	6.28
Nc1cc2[nH]c(=O)c3ccccc3c2cc1N	6.74
O=c1[nH]c2cc(S(=O)(=O)O)ccc2c2ccc(F)cc12	8.00
O=S(=O)(O)c1ccc2c(c1)nc(O)c1cc(S(=O)(=O)O)ccc12	< 4.00
Cc1cccc2c(=O)[nH]c3cc(C(F)(F)F)c([N+](=O)[O-])cc3c12	6.87
O=C(O)c1ccc2c(c1)[nH]c(=O)c1ccccc12	7.24
O=c1[nH]c2ccc([N+](=O)[O-])cc2c2ccccc12	6.81
